Experimental findings from patent US9802897B2, “Amidopyridinol derivative or pharmaceutically acceptable salt thereof and pharmaceutical composition comprising same as active component” (Research Cooperation Foundation of Yeungnam University, priority 2013, dated 2017) are described below.

Several values for one entry are separate records, joined by “and”; a condition that tells them apart may be missing. Identical values can stand only once.

Experiment [1] concerns VEGF-induced angiogenesis in chicken chorioallantoic membrane (CAM). Kind of experiment: CAM analysis of VEGF-induced angiogenesis. In kind it is in vivo. Particulars: for inhibition in vivo at 0.01 nmol/CAM: Gallus gallus, 72 h, VEGF (20 ng/CAM) + Compound (0.01 nmol/CAM), number of blood vessels after 3 days, read-out: Inhibitory rates (%); for ID50 against inhibition of angiogenesis: VEGF-induced CAM angiogenesis. A digest of the protocol:
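Fertilized chicken eggs incubated at 37° C, 55% humidity; on day 10 a window was opened and a cortisone acetate (3 mg/mL)-treated filter disk carrying VEGF at 20 ng/CAM was placed on vessels. Compounds in DMSO/PBS were applied at several concentrations for 3 days; blood vessel number under the disk was counted by stereomicroscopy.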

Experiment [2] concerns TNBS-induced colitis. Kind of experiment: TNBS-induced colitis model of inflammatory bowel disease. Format: in vivo, rat (Sprague Dawley). The source says:
To see alleviating effects of the compounds of the present invention on colitis, an animal model induced by TNBS and having colitis was used for the experiments. The animal used herein was a 7 to 8 week Sprague Dawley species purchased from Samtaco Bio Korea. After the purchase, the animal was stabilized with typical solid feed for 2 days before being used for the experiments. The animal was freely supplied with feed and water during the experiments, and stayed in conditions maintaining a cage temperature of about 25±1° C. and relative humidity of about 50±10%. The cage was equipped with an automatic lightening system to adjust 12-hour light-dark cycle.
In regard to the experimental groups, 5 groups (i.e., a control group, a group administered with TNBS only, […], […], […]) were used according to the randomized block design, wherein each group consists of 6 rats having an average weight of about 180±10 g. The rats that had been fasting for 24 hours were anesthetized with diethylether (Et2O), and then, a 1 mL syringe connected with a polyethylene catheter was used to slowly inject 0.8 mL of 3% TNBS into colonic enema through the anus, wherein TNBS was diluted with 50% (v/v) ethanol. To prevent leakage of 3% TNBS from the anus, the rats turned upside down and let stand for 60 minutes.
In regard to the control group, only a vehicle (50% (v/v) ethanol) was injected into the rats of the control group in the same manner as in preparation of other experimental groups. To examine the effects of the drug, after being fasting for 24 hours, the rats were administered with drugs, i.e., 0.1 mg/kg or 1.0 mg/kg of Compounds 8a and 8j, once a day at a certain time from the second day to the fifth day of the TNBS treatment. As a comparative experimental material, 5-ASA, which is an active metabolite of sulfasalazine that is the most well-known as a therapeutic agent for IBDs, was used as a positive control group.
All the rats were scarified on the seventh day of the TNBS administration. […] After the large intestine of the rat was harvested, a 5 to 6 cm-long tissue from was cut from the anus to a size of 1 cm, and then, subjected to measure an intestine weight and activation of myeloperoxidase (MPO) in the tissue, and to perform a biopsy. In addition, changes in weight of all the animals used in the experiments were observed by using a digital mass meter, beginning from the fasting step, the TNBS administration, and the drug administration. In consideration of the management and use of laboratory animals, the animal experiments were followed according to institutional guidelines from Laboratory Animal Resources, Yeungnam University.
To measure the activation of MPO, an MPO assay was used. The colorectal tissue was washed with cold PBS, and a weight thereof was measured. Then, 200 μL of lysis buffer (pH7.4, 200 mM NaCl, 5 mM EDTA, 10 mM Tris, 10% glycerol) was added for each 10 mg of the weight of the tissue, and then, the tissue homogenizer (Bio homogenizer M133, BIOSPEC PRODUCTS Inc. USA) was used for 30 seconds in terms of homogenization. The homogenized sample was subjected to centrifugation (1500×g) twice, each for 15 minutes. The supernatant obtained therefrom was used to measure the activation of MPO by using the MPO ELISA kit (HK210, Hycult Biotechnology, Netherlands). 100 μL of the supernatant was added to the 96-well plates, each of which well was coated with an anti-mouse MPO antibody, to allow a reaction at room temperature for 1 hour, followed by being washed with PBS three times. Here, 100 μL of a reconstituted tracer was added thereto to allow a reaction at room temperature for 1 hour, followed by being washed three times repeatedly. Then, 100 μL of a reptavidin-peroxidase conjugate was added thereto to allow a reaction at room temperature for 1 hours, followed being washed. Then, 100 μL of a TMB substrate solution was added thereto to allow a reaction for 30 minutes. […]

For the molecule `CC(=O)Nc1nc(C)c(O)c(C)c1C` [Compound 8a, N-(5-hydroxy-3,4,6-trimethylpyridine-2-yl)acetamide], in experiment [1], the inhibition in vivo at 0.01 nmol/CAM stood at 84.8 ± 10%; the “ID50 against inhibition of angiogenesis” value is 1.7 pg/CAM and 8.7 fmol/CAM. Moreover, the “changes in weights of the rat” value in experiment [2] (1.0 mg/kg once a day, TNBS-induced rats) is reported as “excellent recovery of the weight compared to the group treated with 5-ASA”. In experiment [2] (1.0 mg/kg, TNBS-induced rats), the “conditions of the large intestine observed with the naked eye” value is “excellent inhibitory effects on swelling and congestion”. For the same molecule, the “weight of the large intestine” value in experiment [2] (1.0 mg/kg, vs TNBS-treated group) was “significantly decreased”. Moreover, the “activation of myeloperoxidase (MPO) in colorectal tissue” value in experiment [2] (1.0 mg/kg, vs group treated with TNBS only) is “lower activation of MPO”.
Take `CCCCCCCCCCCC(=O)Nc1nc(C)c(O)c(C)c1C` [Compound 8b, N-(5-hydroxy-3,4,6-trimethylpyridine-2-yl)dodecanamide]: in experiment [1], the inhibition in vivo at 0.01 nmol/CAM is 59.3 ± 5.4%; the “ID50 against inhibition of angiogenesis” value was 5.0 pg/CAM and 14.9 fmol/CAM.
